# Read-outs that look alike come from different tables or passages of the source.
# Legend:
# JCV strain Mad1/SVEΔ = assay: microbe, parasite or virus in culture; type: cell-based, JC polyomavirus (JCV); conditions: for % Inhibition (total #JCV+) @10 uM: SV40 transformed glial cells, Mad-1/SVEΔ JCV; for % Inhibition (% JCV+) @10 uM: infection rate, JCV+ cells normalised to total cells
# Protocol: (§1) SV40 transformed glial cells were seeded in 10% FBS media. The cells were seeded at 2000 cells per well in 75 μl of media per well. On day 2, the media was removed and replaced by 35 μl of a 1× concentrated drug aliquot combined with a 100× diluted JCV Turbo aliquot in 35 μl of 2% FBS media (JCV Turbo is a hybrid Mad-1/SVEΔ virus constructed by insertion of the regulatory region of SV40 into the regulatory region of the Mad-1 strain of JCV (Mad-1/SVE), Vacante et al., Virology 1989, 170: 353-361). The cells were incubated for an hour, after which another 65 uL aliquot of 1× concentrated drug in 2% FBS was added. On day 5 the cells were stained with DAPI (for total cell number) and with a mouse monoclonal antibody against SV40 VP1, which cross reacts with the JCV VP1 protein. […] The information is tabulated as % inhibition (as measured by the number and percentage of JCV positive cells).
# (§2) JCV Infectivity Assay: SVG-A cells were seeded at 2,000 cells/well/0.075 ml of culture media in 96 flat-bottom well plate (Corning, N.Y.). The next day compounds were prepared in assay medium (2% heat-inactivated fetal bovine serum, 4 mM L-glutamine, 1×MEM). A master viral plate was prepared by mixing equal volumes of [2×] compound and [2×] diluted virus for the final 1× concentration of the compound and the virus. The plate containing cells was gently inverted and shaken to remove media. From the master plate, 0.035 ml compound/virus was added to designated wells. The cells were incubated with the compound/virus mixture for 60 minutes in a humidified 37° C. CO2 incubator. At that time final concentration of the drug in media was added to designated wells to bring the final volume up to 0.1 ml/well. The plates were incubated for an additional three days, the cells were then washed once with 1×PBS, and fixed in 2% paraformaldehyde/1×PBS for 30 minutes at room temperature. The fixative was removed and the cells were solubilized with 0.5% Triton X100 in PBS for an additional 30 minutes. Infection by Mad-1/SVEΔ virus was visualized by staining with PAB597, a monoclonal antibody against the major capsid protein VP1, the cells were incubated with 0.05 ml of PAB597 (2 μg/ml in 1×PBS) for 60 minutes at 37° C. Following a wash step with 1×PBS, primary antibody was detected with an Alexa-Fluor 488-labeled goat anti-mouse secondary antibody at 1:100 dilution in 1×PBS, cells were counterstained with DAPI at 1 μg/ml (0.05 ml/well) for 30 minutes at 37° C. Cells were washed with 1×PBS and 0.1 ml 1×PBS was added to cells. Field images of each well were acquired and analyzed using the Cellomics ArrayScan (Thermo Scientific Inc, Waltham, Mass.) using the Target Activation software. […] The cells are seeded at 4,000 cells/well/0.075 ml of culture media in 96 flat-bottom well plate (Corning). The culture media is used for the infection. The length of the infection is six to ten days (instead of the three days for SVG-A cells).
# Calculations: The rate of JCV infection was calculated by normalizing the number of JCV infected cells by the total number of nucleated cells as % JCV^+ cells=((total # VP1^+ cells)/(total # DAPI^+ cells))*100%. The % of viral inhibition by a compound was calculated using a JCV infection rate instead of using total number of JCV infected cells (e.g., VP1^+ cells).
# SVG-A cells = assay: Total cell number (DAPI+ events) / cytotoxicity in the JCV infectivity assay; conditions: for inhibition at 10 µM: Homo sapiens, SVG-A, read-out: % Inhibition total Cell Number @10 uM; for % Inhibition total Cell Number @10 uM: cytotoxicity, DAPI count
# Protocol: as §1, §2
# The primary assay employed an SVG-A cell line and JCV Mad1/SVEΔ viral strain.
# [1] = JC polyomavirus, Glial cell, read-out: % Inhibition (total #JCV+) @10 uM
# [2] = JC polyomavirus, SVG-A, read-out: % Inhibition (% JCV+) @10 uM
Compound,inhibition at 10 µM (JCV strain Mad1/SVEΔ; [1]),inhibition at 10 µM (JCV strain Mad1/SVEΔ; [2]),inhibition at 10 µM (SVG-A cells),also measured
O=c1c2ccccc2oc2ccccc12 [XANTHONE],39%,39%,1%,"IC50 (JCV strain Mad1/SVEΔ; JC polyomavirus, SVG-A): 16.8 µM"
CC1=CCc2c(cc3oc(C)cc(=O)c3c2O)OC1 [PTAEROXYLIN],32%,22%,11%,–
Cc1c(Cl)cccc1Nc1ccccc1C(=O)O [TOLFENAMIC ACID],61%,53%,18%,–
CC/C(=C(/CC)c1ccc(O)cc1)c1ccc(O)cc1 [DIETHYLSTILBESTROL],42%,29%,18%,–
COc1cc(/C=C/C(=O)N2CCC=CC2=O)cc(OC)c1OC [PIPLARTINE],21%,27%,-7%,–
c1ccc2[nH]c(-c3cscn3)nc2c1 [THIABENDAZOLE],19%,22%,-1%,–
OCCN(CCO)c1nc(N2CCCCC2)c2nc(N(CCO)CCO)nc(N3CCCCC3)c2n1 [DIPYRIDAMOLE],24%,22%,3%,–
O=C(O)c1cc([N+](=O)[O-])ccc1NCCCc1ccccc1 [5-NITRO-2-PHENYLPROPYLAMINOBENZOIC ACID],–,–,–,% Inhibition (total #JCV+) @10 uM (JCV strain Mad1/SVEΔ): 14%; % Inhibition (% JCV+) @10 uM (JCV strain Mad1/SVEΔ): 21%; % Inhibition total Cell Number @10 uM (SVG-A cells): −9%
O=c1cc(-c2ccccc2)oc2cccc(O)c12 [PRIMULETIN],–,–,–,% Inhibition (total #JCV+) @10 uM (JCV strain Mad1/SVEΔ): 40%; % Inhibition (% JCV+) @10 uM (JCV strain Mad1/SVEΔ): 29%; % Inhibition total Cell Number @10 uM (SVG-A cells): 12%
CN1CCCN=C1/C=C/c1cccs1 [PYRANTEL PAMOATE],48%,42%,12%,–
CCOc1nc2cccc(C(=O)OC(C)OC(=O)OC3CCCCC3)c2n1Cc1ccc(-c2ccccc2-c2nn[nH]n2)cc1 (centres unmarked) [CANDESARTAN CILEXTIL],–,–,–,% Inhibition (total #JCV+) @10 uM (JCV strain Mad1/SVEΔ): 54%; % Inhibition (% JCV+) @10 uM (JCV strain Mad1/SVEΔ): 44%; % Inhibition total Cell Number @10 uM (SVG-A cells): 19%
C[C@H]1C[C@H]2[C@@H]3CCC4=CC(=O)C=C[C@]4(C)[C@@]3(F)[C@@H](O)C[C@]2(C)[C@@]1(O)C(=O)CO [BETAMETHASONE],34%,24%,14%,–
C[C@H](N)CO [L-ALANINOL],–,–,–,% Inhibition (total #JCV+) @10 uM (JCV strain Mad1/SVEΔ): 13%; % Inhibition (% JCV+) @10 uM (JCV strain Mad1/SVEΔ): 31%; % Inhibition total Cell Number @10 uM (SVG-A cells): −23%
COC(=O)c1c(C)c2c(c(C)c1O)OC(=O)c1c(C)c(Cl)c(O)c(Cl)c1O2 [LEOIDIN],14%,21%,-9%,–
DEHYDROABIETAMIDE,–,–,–,"% Inhibition (total #JCV+) @10 uM (JCV strain Mad1/SVEΔ): 40%; % Inhibition (% JCV+) @10 uM (JCV strain Mad1/SVEΔ): 33%; IC50 (JCV strain Mad1/SVEΔ; anti-JCV, inhibition of % JCV infected cells by 50%, full dose response, read-out: IC50): 13 µM; CC50 (SVG-A cells): > 40 µM; % Inhibition total Cell Number @10 uM (SVG-A cells): 11%"
CCCCOc1cc(CC2CNC(=O)N2)ccc1OC (centres unmarked) [4-(3-BUTOXY-4-METHOXYBENZYL)IMIDAZOLIDIN-2-ONE],48%,42%,12%,–
CC(C)=CCc1c(O)cc2oc(C)cc(=O)c2c1O [PEUCENIN],21%,27%,-7%,–
O=c1cc(-c2ccccc2)oc2cc(O)cc(O)c12 [CHRYSIN],18%,26%,-12%,–
COc1cc2c(cc1-c1coc3c4c(c(OC)cc3c1=O)OC(C)(C)C=C4)OCO2 [ICHTHYNONE],34%,24%,14%,–
NCCOB(c1ccccc1)c1ccccc1 [AMINOETHOXYDIPHENYLBORANE],25%,21%,3%,–
COc1cc2c(cc1-c1cc3cc4ccoc4cc3oc1=O)OCO2 [PACHYRRHIZIN],–,–,–,% Inhibition (total #JCV+) @10 uM (JCV strain Mad1/SVEΔ): 45%; % Inhibition (% JCV+) @10 uM (JCV strain Mad1/SVEΔ): 34%; % Inhibition total Cell Number @10 uM (SVG-A cells): 17%
Nc1nc2ccc(OC(F)(F)F)cc2s1 [RILUZOLE],16%,26%,–,–
